Source: patent US12514859B2, “Pyrazole pyrimidine derivative and uses thereof” (Yissum Research Development Company of the Hebrew …, priority 2015, dated 2026)

Columns and labels:
[1] = tested on: p53, DNA damage response (γH2AX); experiment: p53 and DNA damage response activation in RKO cells (Western blot, primary screen and dose response); type: cell-based; conditions: 16 hours, Western blot, average value
Outline: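 RKO colorectal cells exposed to 10 μM compound (primary screen) or descending concentrations (dose response) for 16 h at 37° C. Lysates Western-blotted for β-catenin, p53, CKIα and phospho-H2AX (S139), ECL detection. p53/DDR activation and β-catenin stabilization scored semi-quantitatively by degree of protein stabilization across several blots.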

IRAK1 = biological target: T1, IRAK1 (Homo sapiens, UniProt P51617); experiment: Kd measurements for the interaction with IRAK1; type: binding
T1 construct: RKO cells were incubated for 16 hours at 37° C. with the indicated concentrations of compounds; endogenous in cells; host or cells: RKO cells, stimulated with TNFα

AML mice (MLL-AF9) = experiment: MLL-AF9 acute myeloid leukemia (AML) mouse model; type: in vivo; conditions: oral gavage 20 mg/kg for 3 days then 10 mg/kg/day for 6 days
Method: Generation of a mouse model of acute myeloid leukemia (AML) (FIG. 6) and treatment with the CKIα inhibitor A14 (FIGS. 7, 8 and 9) or A51 (FIGS. 11 and 12). To generate the MLL-AF9 Acute myeloid leukemia (AML) model, bone marrow (BM) cells from 10 week old wild type mouse were extracted and enriched for cKit expressing cells (EasySep #18757) and incubated overnight in RPMI supplemented with 15% FCS L-Glutamine, Pen/Strep (Biological Industries, Israel) and stem cell factor (SCF), IL-3, IL-6 and TPO (Peprotech). The culture was infected with MSCV-MLL-AF9-IRES-GFP retrovirus construct containing supernatant medium for 4 hours, then growth medium was added and infected cells were incubated at 37° C. for additional 24 h. The culture was then injected I.V. into sub lethally irradiated (500 rad) mice. Upon detectable steady increase of GFP expressing cells in the mice peripheral blood (checked by FACS analysis) and rise in leukocyte numbers and immature cells (detected by Wright-Giemsa stained blood films), mice were sacrificed and their BM was transferred (1st BMT) to sublethally irradiated WT hosts. Upon emergence of AML disease mice were sacrificed and 50,000 BM cells were transplanted (2nd BMT) into WT host mice. GFP expressing cells were monitored in the peripheral blood and upon detecting >10% GFP^+ in PB (day 11 after BMT) mice were treated with A14 inhibitor (FIG. 7A). A14 was administered by oral gavage once a day at a dose of 20 mg/kg for 3 days followed by 10 mg/kg/day for 6 more days. The inhibitor was dissolved in 1% methyl cellulose with 0.1% Tween 80 and 0.2% Poly-ethylene glycol (Vehicle). Control mice were treated with the vehicle only. Mice were monitored daily for cachexia, lethargy, and ruff coats, and moribund mice were sacrificed. For a single dose experiment (FIG. 11A) A51 was administered by oral gavage at a single dose of 20 mg/kg and mice were sacrificed 16 hours following treatment.
Complete blood counts. Peripheral venous blood was obtained from the mouse facial vein using standard techniques and analyzed using the auto hematology analyzer BC-2800 (Mindray) per manufacturer's instructions.
Single-dose treatment effect of a CKI inhibitor in AML mice and PD-L1 expression. AML mice were prepared by inoculating MLL-AF9 oncogene-transduced bone marrow cells to C57/BL6 mice. MLL-AF9 fusion represents one of a poor prognosis human AML induced by chromosomal translocation. 30 days after leukemia inoculation, the recipient mice have high white blood cells (WBC) counts (×10 higher than a normal mouse), and harbor >95% leukemia blasts in the bone marrow and 50% of the peripheral WBC in these mice are AML blasts. These mice have splenomegaly and their bones are pale and fragile due to the acute leukemia (FIG. 12).

T1 sequence (P51617 whole entry): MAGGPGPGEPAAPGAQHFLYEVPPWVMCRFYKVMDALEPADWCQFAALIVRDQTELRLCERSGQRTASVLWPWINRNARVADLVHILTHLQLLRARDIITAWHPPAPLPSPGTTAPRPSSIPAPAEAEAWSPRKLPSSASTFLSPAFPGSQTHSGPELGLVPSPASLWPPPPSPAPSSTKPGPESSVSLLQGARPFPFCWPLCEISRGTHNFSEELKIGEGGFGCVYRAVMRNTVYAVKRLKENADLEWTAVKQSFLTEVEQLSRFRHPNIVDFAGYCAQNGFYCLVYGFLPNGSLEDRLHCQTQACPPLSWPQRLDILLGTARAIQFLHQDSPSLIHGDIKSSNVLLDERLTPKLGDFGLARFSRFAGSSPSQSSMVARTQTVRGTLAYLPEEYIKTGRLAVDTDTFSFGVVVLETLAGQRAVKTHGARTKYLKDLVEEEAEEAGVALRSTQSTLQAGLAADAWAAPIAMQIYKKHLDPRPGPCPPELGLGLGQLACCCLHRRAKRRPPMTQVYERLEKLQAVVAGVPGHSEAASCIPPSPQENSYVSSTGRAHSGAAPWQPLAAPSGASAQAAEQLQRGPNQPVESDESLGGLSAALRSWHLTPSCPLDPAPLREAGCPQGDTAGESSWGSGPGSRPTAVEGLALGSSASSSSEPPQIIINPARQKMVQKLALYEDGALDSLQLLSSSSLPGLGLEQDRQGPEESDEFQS

In the case of `Cn1ncc(-c2ccnc(N[C@H]3CC[C@H](N)CC3)n2)c1CC1CC1` [Compound A14, (1R, 4R)—N^1-(4-(5-(cyclopropylmethyl)-1-methyl-1H-pyrazol-4-yl)pyrimidin-2-yl)cyclohexane-1,4-diamine], the “DDR & p53 activity” value [1] is reported as “+++ (+++ indicates maximal β-catenin or p53 stabilization at >2 μM)”, the Kd (IRAK1) is reported as 11 nM and the “progression of AML, GFP+ leukocytes in peripheral blood (in words)” value (AML mice (MLL-AF9)) is reported as “inhibitory effect”.
